In patent publication US9308198B2, “Treatment, prevention, and reversal of alcohol-induced brain disease” (priority 2006, dated 2016):

Experiments:
[1] = system: primary cerebellar neuron cultures; assay: Membrane cholesterol content, primary cerebellar neuron cultures; type: cell-based, rat; settings: for membrane cholesterol content: 10 mM for 3 hours in Locke's buffer, control and ethanol-exposed cerebellar cultures
Description: In vitro experiments were used to examine the effects of ethanol on receptor binding and choline acetyltransferase (ChAT) and acetylcholinesterase (AChE) expression in cerebellar neurons. Primary neuronal cultures were generated with postnatal day 8 rat pup cerebellar tissue (Nikolic et al. Genes Dev. 10:816 (1996)). The cultures were maintained with Dulbecco's modified Eagle's medium (DMEM) supplemented with 5% fetal calf serum, 4 mM glutamine, 100 μM non-essential amino acid mixture (Gibco-BRL, Grand Island, N.Y.), 25 mM KCl, and 9 g/L glucose. Ethanol treatment was accomplished by placing the cultures (seeded in 6-well dishes or 96-well plates) in sealed chambers in which 50 mM ethanol was vaporized from a reservoir tray (de la Monte et al. Alcohol Clin. Exp. Res. 24:716 (2000); Banerjee et al. Alcohol Clin. Exp. Res. 22:2093 (1998)). Control cultures were identically treated but with water added to the reservoir tray. The chambers were flushed with gas containing 75% nitrogen, 20% oxygen, and 5% carbon dioxide. After 96 hours incubation at 37° C., the cells were harvested to measure insulin, IGF-I, and IGF-II receptor binding. […] To examine the effects of membrane cholesterol content on growth factor stimulated neuronal viability and function, identically treated 96-well cultures were stimulated with vehicle, 10 nM insulin, 10 nM IGF-I, or 25 nM IGF-II for 10 minutes and then analyzed for ATP content, or for 16 hours and then used to measure viability and ChAT or AChE immunoreactivity with the MICE assay (de la Monte et al., Biotechniques 26:1073 (1999)). ATP content was measured with the ATPLite assay (Packard, Meriden, Conn.). Viability was measured using the CyQuant assay (Molecular Probes, Eugene, Oreg.). Immunoreactivity was measured directly in the cultured wells using the microtiter immunocytochemical ELISA (MICE) assay (de la Monte et al., Biotechniques 26:1073 (1999)).

ChAT = ChAT immunoreactivity (MICE assay); type: cell-based, rat
Description: In vitro experiments were used to examine the effects of ethanol on receptor binding and choline acetyltransferase (ChAT) and acetylcholinesterase (AChE) expression in cerebellar neurons. Primary neuronal cultures were generated with postnatal day 8 rat pup cerebellar tissue (Nikolic et al. Genes Dev. 10:816 (1996)). The cultures were maintained with Dulbecco's modified Eagle's medium (DMEM) supplemented with 5% fetal calf serum, 4 mM glutamine, 100 μM non-essential amino acid mixture (Gibco-BRL, Grand Island, N.Y.), 25 mM KCl, and 9 g/L glucose. Ethanol treatment was accomplished by placing the cultures (seeded in 6-well dishes or 96-well plates) in sealed chambers in which 50 mM ethanol was vaporized from a reservoir tray (de la Monte et al. Alcohol Clin. Exp. Res. 24:716 (2000); Banerjee et al. Alcohol Clin. Exp. Res. 22:2093 (1998)). Control cultures were identically treated but with water added to the reservoir tray. The chambers were flushed with gas containing 75% nitrogen, 20% oxygen, and 5% carbon dioxide. After 96 hours incubation at 37° C., the cells were harvested to measure insulin, IGF-I, and IGF-II receptor binding. Alternatively, the cells were serum-starved for 12 hours and then stimulated with 10 nM insulin, […], 25 nM IGF-II, or vehicle for 16 hours, and RNA was harvested to measure ChAT and AChE expression. Parallel 96-well cultures stimulated with growth factors for 10 minutes were used to measure ATP, or for 16 hours to measure viability, and ChAT or AChE immunoreactivity. To investigate the role of membrane cholesterol content in relation to receptor binding, control and ethanol-exposed cells were treated with vehicle, 10 mM Methyl-β-cyclodextrin (MβCD), or 10 mM aqueous soluble cholesterol in Locke's buffer (154 mM NaCl, 5.6 mM KCl, 2.3 mM CaCl2, 1.0 mM MgCl2, 3.6 mM NaHCO3, 5 mM glucose, 5 mM Hepes, pH 7.4) for 3 hours and then harvested for binding assays. To examine the effects of membrane cholesterol content on growth factor stimulated neuronal viability and function, identically treated 96-well cultures were stimulated with vehicle, 10 nM insulin, 10 nM IGF-I, or 25 nM IGF-II for 10 minutes and then analyzed for ATP content, or for 16 hours and then used to measure viability and ChAT or AChE immunoreactivity with the MICE assay (de la Monte et al., Biotechniques 26:1073 (1999)). ATP content was measured with the ATPLite assay (Packard, Meriden, Conn.). Viability was measured using the CyQuant assay (Molecular Probes, Eugene, Oreg.). Immunoreactivity was measured directly in the cultured wells using the microtiter immunocytochemical ELISA (MICE) assay (de la Monte et al., Biotechniques 26:1073 (1999)).
The concentration of ethanol used was within the range detected in human alcoholics (Fulop et al., Am. J. Med. 80:191 (1986); Jagger et al., Neurosurgery 15:303 (1984)). ChAT and AChE immunoreactivity were measured directly in the cultured cells using the MICE assay (cellular ELISA), with values normalized to cell density.
The effects of cholesterol or MβCD treatment on neuronal viability (FIGS. 19A-19C), ATP production (energy metabolism; FIGS. 19D-19F), ChAT (FIGS. […]) and AChE (FIGS. 19J-19L) immunoreactivity were examined in cells that were treated as described above and stimulated 12 hours with vehicle (control), 10 nM insulin, 10 nM IGF-I, or 25 nM IGF-II in serum-free medium. All assays were performed using 96-well cultures. Viability was measured using the CyQuant assay and ATP content was measured using the ATPLite assay.

[2] = 10 mM for 3 hours, control cells

| Compound | membrane cholesterol content [1] | basal and growth factor stimulated ChAT expression (ChAT; [2]) | insulin-, IGF-I-, and IGF-II-stimulated levels of ChAT (ChAT; 10 mM for 3 hours, ethanol-exposed cells, relative to vehicle-treated cells) | cerebellar neuron membrane cholesterol content ([1]; in vitro exposure to 50 mM ethanol for 96 hours) | ChAT immunoreactivity (ChAT; 50 mM ethanol for 96 hours, basal, insulin-stimulated and IGF-I stimulated, relative to control) | IGF-I- and IGF-II-stimulated ChAT (ChAT; [2]) | insulin-stimulated ChAT (ChAT; [2]) | ChAT expression relative to control (ChAT; 10 mM for 3 hours, ethanol-exposed cells, independent of growth factor stimulation) |
| --- | --- | --- | --- | --- | --- | --- | --- | --- |
| CC(C)CCC[C@@H](C)[C@H]1CC[C@H]2[C@@H]3CC=C4C[C@@H](O)CC[C@]4(C)[C@H]3CC[C@]12C [cholesterol] | significantly increased | muted | significantly increased | – | – | – | – | – |
| CCO [ethanol] | – | – | – | significantly reduced | significantly reduced | – | – | – |
| Methyl-β-cyclodextrin [MβCD] | significantly reduced | – | – | – | – | significantly increased | abolished the insulin-stimulated increases in ChAT | broadly reduced levels |
